Measured values taken from US12054510B2, “2′ and/or 5′ amino-acid ester phosphoramidate 3′-deoxy adenosine derivatives as anti-cancer compounds” (Nucana plc, priority 2014, dated 2024).

Experiments:
Format in all cases: cell-based
[1] = test system: leukaemic stem cell (LSC) compartment within the KG1a cell line; assay: Immunophenotypic identification of the leukaemic stem cell compartment; details: 72 h; for targeting of LSCs (LSC as percentage of all viable cells left in culture): FIG. 2-4; for preferential targeting of LSCs compared with the parent nucleoside: compound A at 1 mM and above
Method: KG1a cells were cultured for 72 h in the presence of a wide range of concentrations of each compound assayed. Cells were then harvested and labelled with a cocktail of anti-lineage antibodies (PE-cy7), anti-CD34 (FITC), anti-CD38 (PE) and anti-CD123 (PERCP cy5). The sub-population expressing a LSC phenotype were subsequently identified and were expressed as a percentage of all viable cells left in the culture. The percentages of stem cells remaining were then plotted on a dose-response graph and the effects of the compounds were compared with each other, and with the parent nucleoside.
The data obtained in these experiments were evaluated using one way ANOVA. All data was confirmed as Gaussian or a Gaussian approximation using the omnibus K2 test. LD50 values were calculated from the non-linear regression and line of best-fit analysis of the sigmoidal dose-response curves. All statistical analyses were performed using Graphpad Prism 6.0 software (Graphpad Software Inc., San Diego, CA).

HepG2 = assay: CellTiterGlo cell viability assay, initial screening; details: for M.I. %: maximum percentage inhibition of cell viability: HepG2, 72 hr, Table II
Method: (§1) In vitro viability assays were performed to assess the effects of compounds on cell viability in 7 selected cell lines over 72 hr using the CellTiterGlo (CTG, Promega-G7573) assay. The tests were performed in duplicates with treatment of compounds at 9 points, 3.16 folds titration in 96 well plates over ˜72 hr. The compound starting concentrations were […]. Cell viability assay using CellTiterGlo in 96-well plate were performed. The compound treatment was 72 hrs, under standard growth conditions, and in duplicate. Compounds were dissolved to 40 mM with thawed […]. Compounds were serially diluted at 3.16 fold in thawed DMSO, and warmed to 37° C. before being dissolved in media (2 μl+200 μl). After compounds were dissolved in media (media was also warmed to 37° C.). Media containing compounds were warmed to 37° C. in incubator and then compounds in media were added to cell plates (50 μl+50 μl), in duplicates. The compounds final concentrations were from […] to 19.9 nM. All compound solubilities were checked and recorded again, then the plates were transferred to CO2 tissue culture incubator immediately and incubated for 3 days. DMSO final concentration is 0.5%.

MOLT-4 = assay: as above
Method: as §1

CCRF-CEM = assay: as above
Method: as §1

MCF-7 = assay: as above; details: MCF-7; 72 hr; Table II
Method: as §1

KG-1 = assay: as above
Method: as §1

K562 = assay: as above; details: 72 hr, Table II
Method: as §1

HL-60 = assay: as above; details: for IC50: Homo sapiens, HL-60, 72 h, read-out: IC50 (relative IC50)
Method: as §1

| Structure (SMILES) | targeting of LSCs (LSC as percentage of all viable cells left in culture) [1] | preferential targeting of LSCs compared with the parent nucleoside [1] | M.I. %: maximum percentage inhibition of cell viability (HepG2) [%] | M.I. %: maximum percentage inhibition of cell viability (MCF-7) [%] | M.I. %: maximum percentage inhibition of cell viability (K562) [%] | M.I. %: maximum percentage inhibition of cell viability (MOLT-4; MOLT-4, 72 hr, Table II) [%] | M.I. %: maximum percentage inhibition of cell viability (CCRF-CEM; CCRF-CEM, 72 hr, Table II) [%] | M.I. %: maximum percentage inhibition of cell viability (KG-1; KG-1, 72 hr, Table II) [%] | M.I. %: maximum percentage inhibition of cell viability (HL-60; HL-60, 72 hr, Table II) [%] | also measured |
| --- | --- | --- | --- | --- | --- | --- | --- | --- | --- | --- |
| C[C@H](NP(=O)(OC[C@@H]1C[C@@H](O)[C@H](n2cnc3c(N)nc(F)nc32)O1)Oc1ccccc1)C(=O)OCc1ccccc1 (mixture of isomers) [P, (2S)-benzyl 2-(((((2S,4R,5R)-5-(6-amino-2-fluoro-9H-purin-9-yl)-4-hydroxytetrahydrofuran-2-yl)methoxy)(phenoxy)phosphoryl)amino)propanoate] | preferential targeting of LSCs | significantly improved when compared with the parental nucleoside | – | – | – | – | – | – | – | – |
| C[C@H](NP(=O)(N[C@@H](C)C(=O)OCc1ccccc1)OC[C@@H]1CC(O)[C@H](n2cnc3c(N)ncnc32)O1)C(=O)OCc1ccccc1 (stereo in doubt) [Compound J, Benzyl 2-[({[5-(6-amino-9H-purin-9-yl)-4-hydroxyoxolan-2-yl]methoxy}({[1-(benzyloxy)-1-oxopropan-2-yl]amino})phosphoryl)amino]propanoate] | – | – | 55 | 97 | 97 | – | – | – | – | M.I. %: maximum percentage inhibition of cell viability (MOLT-4; human, 72 h): 100%; M.I. %: maximum percentage inhibition of cell viability (CCRF-CEM; human, 72 h): 100%; M.I. %: maximum percentage inhibition of cell viability (KG-1; human, 72 h): 29%; M.I. %: maximum percentage inhibition of cell viability (HL-60; human, 72 h): 98% |
| C[C@H](NP(=O)(Oc1cccc2ccccc12)O[C@@H]1C[C@@H](CO)O[C@H]1n1cnc2c(N)ncnc21)C(=O)OCc1ccccc1 (stereo partly drawn) [Compound I, (2S)-benzyl 2-(((((2R,3R,5S)-2-(6-amino-9H-purin-9-yl)-5-(hydroxymethyl)tetrahydro-furan-3-yl)oxy)(naphthalen-1-yloxy)phosphoryl)amino)propanoate] | – | – | 90 | 99 | 87 | 100 | 99 | 93 | 99 | – |
| C[C@H](NP(=O)(OC[C@@H]1C[C@H](O)[C@H](n2cnc3c(N)nc(F)nc32)O1)Oc1cccc2ccccc12)C(=O)OCc1ccccc1 (stereo partly drawn) [Compound O] | able to bring about a reduction in the proportion of LSCs | not significantly different to 2-F-Cordycepin | – | – | – | – | – | – | – | – |
| CCCCCOC(=O)[C@H](CC(C)C)NP(=O)(OC[C@@H]1C[C@H](O)[C@H](n2cnc3c(N)nc(F)nc32)O1)Oc1cccc2ccccc12 (stereo partly drawn) [Compound Q, 2-Fluoro-3′-deoxyadenosine-5′-O-[1-naphthyhl(1-pentyloxy-L-leucinyl)]phosphate] | preferential targeting of LSCs | significantly improved when compared with the parental nucleoside | – | – | – | – | – | – | – | – |
| C[C@H](NP(=O)(Oc1ccccc1)O[C@@H]1C[C@@H](CO)O[C@H]1n1cnc2c(N)ncnc21)C(=O)OCc1ccccc1 (stereo partly drawn) [G, (2S)-benzyl 2-(((((2R,3R,5S)-2-(6-amino-9H-purin-9-yl)-5-(hydroxymethyl)tetrahydro-furan-3-yl)oxy)(phenoxy)phosphoryl)amino)propanoate] | – | – | 67 | 97 | 78 | 75 | 65 | 63 | 57 | IC50 (HepG2; Homo sapiens, HepG2, 72 h, read-out: IC50 (relative IC50)): 15 to 100 µM; IC50 (HL-60): 15 to 100 µM |
| C[C@H](NP(=O)(OC[C@@H]1C[C@@H](OP(=O)(N[C@@H](C)C(=O)OCc2ccccc2)Oc2ccccc2)[C@H](n2cnc3c(N)ncnc32)O1)Oc1ccccc1)C(=O)OCc1ccccc1 (stereo partly drawn) [H, Benzyl 2-(((((2S,4R,5R)-5-(6-amino-9H-purin-9-yl)-4-((((1-(benzyloxy)-1-oxopropan-2-yl)amino)(phenoxy)phosphoryl)oxy)tetrahydrofuran-2-yl)methoxy)(phenoxy)phosphoryl)-amino)propanoate] | – | – | 55 | 94 | 89 | 100 | 100 | 69 | 80 | IC50 (HL-60): 15 to 100 µM |
| CCCCCCOC(=O)[C@H](C)NP(=O)(OC[C@@H]1C[C@@H](O)[C@H](n2cnc3c(N)nc(F)nc32)O1)Oc1ccccc1 (stereo partly drawn) [R, (2S)-hexyl 2-(((((2S,4R,5R)-5-(6-amino-2-fluoro-9H-purin-9-yl)-4-hydroxytetrahydrofuran-2-yl)methoxy)(phenoxy)phosphoryl)amino)propanoate] | preferential targeting of LSCs | significantly improved when compared with the parental nucleoside | – | – | – | – | – | – | – | – |
